These are literature values, as cited in US9492446B2, “Manufacturing method of solid dispersion containing itraconazole” (CTC BIO, Inc., priority 2004, dated 2016).

The structures appear in SMILES notation.

The conditions of data set [1]: AIDS patients, higher pH in stomach; oral.

With `CCC(C)n1ncn(-c2ccc(N3CCN(c4ccc(OCC5COC(Cn6cncn6)(c6ccc(Cl)cc6Cl)O5)cc4)CC3)cc2)c1=O` (centres unmarked) [Itraconazole], the water-solubility entry is “less than 1 ug/ml”. Moreover, the “absorption of itraconazole relative to that of normal people” value in data set [1] was “no more than 50%”.
